Experiments:
Candida = test: Biofilm assay of hydroxylated carboxylic acids; type: cell-based
Excerpt: Given the importance of formation of biofilm in vulvovaginal Candida infections, a biofilm assay was deemed appropriate to evaluate the effect of hydroxylated carboxylic acid in targeting vulvovaginal Candida infections. […] As biofilm formation is dependent on both pH and the occurrence of alternative carbohydrate sources, it was not surprising to learn that lactic acid provides some effect on the formation of biofilm. Further, also some other hydroxylated C2-C5 carboxylic acids provided similar effects. Their effect is deemed to be related to their acidifying effect, as the stronger acid provided somewhat stronger effects.
Whereas the effect of other hydroxylated carboxylic acids seemingly only is due to their acidity (lowering the pH hampers the formation of biofilm), the effect of polyhydroxylated C6 carboxylic acids, e.g. gluconic acid, on formation of biofilm is pronounced already at pH<7. Thus, it seems that the effect of polyhydroxylated C6 carboxylic acid, e.g. gluconic acid, on formation of biofilm not merely is related to its acidity, but the compound itself, or more precisely the related δ-lactone thereof, also provides an effect.

Candida albicans [1] = test: Biofilm formation of Candida albicans at different pH (crystal violet); type: cell-based
Method: The biofilm was measured after 24 h and the staining was performed with crystal violet.
(§1) Yeast strains were grown at 37° C. in complete medium YPD (0.5% (weight/volume) yeast extract, 1% (weight/volume) peptone, 2% (weight/volume) glucose) or minimal medium consisting of YNB (yeast nitrogen base without amino acids and ammonium sulphate, FORMEDIUM™, CYN0505) supplemented with 0.5% (weight/volume) ammonium sulphate, 0.2% (weight/volume) glucose and 100 mM L-proline. If needed 2% (weight/volume) agar was used to solidify media. The liquid minimal medium (YNB (yeast nitrogen base without amino acids and ammonium sulphate, FORMEDIUM™, CYN0505) supplemented with 0.5% ammonium sulphate, 0.2% (weight/volume) glucose and 100 mM L-proline) was used for biofilm assay (biofilm medium).
Biofilm was measured in liquid culture as described [K. Scherz et al., G3 (Bethesda), 2014, 4, 1671-1680. I. Serrano-Fujarte et al. Biomed Res Int. 2015; 2015:783639] with some modifications. […] At defined time points crystal violet (HT901-8FOZ; Sigma Aldrich) was added to the media at the final concentration 0.05% In addition, total biomass was measured. […] Total biomass and crystal violet biofilm staining measurements were performed at OD560 with FLUOstar OPTIMA plate reader, BMG LABTECH. […]

Candida albicans [2] = test: Biofilm formation in a model of in vivo conditions using GDA pellet; type: cell-based; settings: C. albicans
Method: as §1
(§2) Biofilm was measured in liquid culture as described [K. Scherz et al., G3 (Bethesda), 2014, 4, 1671-1680. I. Serrano-Fujarte et al. Biomed Res Int. 2015; 2015:783639] with some modifications. Prior the biofilm assay, yeast cultures were grown in liquid YPD medium for 24 hours until stationary phase cells were then pelleted by centrifugation (1699×g), washed with sterile water and the cells were further inoculated into test biofilm medium (YNB (yeast nitrogen base without amino acids and ammonium sulphate) supplemented with 0.5% ammonium sulphate, 0.2% glucose and 100 mM L-proline pH7.0) at final concentration of 0.2 OD600/ml and incubated in 96-well flat-bottom polystyrene microtiter plates (Sigma Aldrich, Corning® Costar® culture plates, CLS3596-50EA) for 72 hours at 37° C. thermostat. At defined time points crystal violet (HT901-8FOZ; Sigma Aldrich) was added to the media at the final concentration 0.05% In addition, total biomass was measured. […] Total biomass and crystal violet biofilm staining measurements were performed at OD560 with FLUOstar OPTIMA plate reader, BMG LABTECH. […]
(§3) Samples (4 mL) were taken at fixed time points (1, 2, 3, 4, 5, 6 and 24 h) and new buffer solution (4 mL) was added. The samples were diluted 50 times with biofilm medium (vide supra) and the amount of biofilm formation was measured after 24 h as described above. […]

Candida glabrata = test: as above; type: cell-based; settings: C. glabrata; GDA released from pellet (2.5 g) in pH 3.71 buffer, samples 1-24 h, diluted 50 times
Method: as §1, §2, §3

C. albicans [3] = test: Viability of mature biofilm, XTT staining; type: cell-based, Candida albicans
Method: (§4) XXT is a colorimetric assay for quantification of cellular viability, and cytotoxicity. The assay is based on the cleavage of the tetrazolium salt XTT, a conversion that only occurs in viable cells. […] Then the cells were washed 2 times with PBS, after which the XTT reaction mixture was added. After 30 min the optical density measured at 485 nm.

C. glabrata [4] = test: Viability of mature biofilm, XTT staining; type: cell-based, Candida glabrata; settings: 24 h of incubation
Method: as §4

C. albicans [5] = test: Cell survival of mature biofilm, serial dilution plating on YPD; type: cell-based, Candida albicans; settings: 0.5 g/ml, 5 h, 37° C.
Method: (§5) The plated cells were incubated for 24 h at 37° C. and visually analyzed. The cells from the mature biofilm treated with water were used as a control. […] At the concentrations of 0.2 and 0.5 g/ml after 5 h of incubation the cell viability was decreased by about 100 times for both C. albicans and C. glabrata.

C. glabrata [6] = test: as above; type: cell-based, Candida glabrata
Method: as §5

C. albicans [7] = test: Microfluidics study of biofilm development (cell morphology); type: cell-based, Candida albicans; settings: 5 h, 1 h hydrolysate of GDA pellet diluted 50 times
Method: To monitor the C. albicans cell morphology we studied the biofilm development also using microscopy and microfluidics. After the yeast cells were inoculated, hyphae started to form within first hour of incubation in the biofilm medium (YNB supplemented with 100 mM proline and 0.2% glucose, pH7.0). […] A sample was taken after 1 h and diluted 50 times with biofilm medium and added to C. albicans.

Candida sp. = test: Viability on medium with calcofluor white versus osmotic stabilizer (cell wall damage); type: cell-based; settings: compared to medium with 0.5M sucrose and to untreated cells

## O=C(O)[C@H](O)[C@@H](O)[C@H](O)[C@H](O)CO [gluconic acid]
Candida
  pH at which effect on formation of biofilm is already pronounced: < 7
Candida; compared to glyceric acid, xylonic acid and citric acid
  Decrease of formation of biofilm: superior effects

## O=C1O[C@H](CO)[C@@H](O)[C@H](O)[C@H]1O [GDA, glucono δ-lactone]
Candida albicans [1]; C. albicans, 24 h
  pH up to which strong effect on biofilm formation is shown: at least 6
Candida albicans [1]; minimal media pH 2.6-6.6, 24 h
  Effect on biofilm formation of C. albicans: strong effects
Candida albicans [2]; GDA released from pellet (2.5 g) in pH 3.71 buffer, samples 1-24 h, diluted 50 times
  Amount of biofilm formation: significantly reduces
Candida albicans [2]; pellet 2.5 g in pH 3.71 buffer, 37° C.
  Duration of preventive effect of pellet: ≥ 24 h
Candida glabrata
  Amount of biofilm formation: less pronounced
C. albicans [3]; 24 h of incubation
  Viability of mature biofilm (XTT, OD 485 nm): less pronounced
C. albicans [3]; 48 h
  Viability of mature biofilm (XTT, OD 485 nm): clearly seen
C. glabrata [4]
  Viability of mature biofilm (XTT, OD 485 nm): strong decrease in viability
C. albicans [5]
  Decrease of cell viability: about 100 times
C. glabrata [6]; C. glabrata mature biofilm, 0.5 g/ml, 5 h, 37° C.
  Decrease of cell viability: about 100 times
C. glabrata [6]; C. glabrata, plating after incubation with GDA
  Sensitivity of mature biofilm compared with C. albicans: more sensitive
C. albicans [7]
  Cell morphology: most treated cells were planctonic
Candida sp.
  Viability on medium with calcofluor white: lower viability

## CC(O)C(=O)O (stereo not shown) [lactic acid]
Candida; targeting vulvovaginal Candida infections
  Activity in biofilm assay: moderately active

Source: patent publication US20210212937A1, “GLUCONO DELTA-LACTONE FOR TREATMENT OF VAGINAL FUNGAL INFECTIONS” (Gedea Biotech AB, priority 2016, published 2021)
